According to ChEMBL document CHEMBL4340502, “Anti-biofilm and anti-adherence properties of novel cyclic dipeptides against oral pathogens” (Bioorg Med Chem, 2019):
Calls of active or inactive are those of the source. The rule behind the calls is not given here.

Experiments:
Fusobacterium nucleatum = test: Antibiofilm activity against Fusobacterium nucleatum ATCC 25586 assessed as inhibition of biofilm formation up to 96 ug/mL after 24 hrs by crystal violet staining based assay; type: functional, organism-based
Porphyromonas gingivalis = test: Antibiofilm activity against Porphyromonas gingivalis ATCC 33277 assessed as inhibition of biofilm formation up to 96 ug/mL after 24 hrs by crystal violet staining based assay; type: functional, organism-based
Streptococcus mutans [1] = test: Inhibition of planktonic growth of Streptococcus mutans ATCC 25175 up to 96 ug/mL after 24 hrs relative to control; type: organism-based
Streptococcus mutans [2] = test: Antibiofilm activity against Streptococcus mutans ATCC 25175 assessed as inhibition of biofilm formation up to 96 ug/mL after 24 hrs by crystal violet staining-based assay; type: functional, organism-based

| Compound | inhibition (Fusobacterium nucleatum) | inhibition (Porphyromonas gingivalis) | growth inhibition (GI) (Streptococcus mutans [1]) | inhibition (Streptococcus mutans [2]) |
| --- | --- | --- | --- | --- |
| O=C1[C@H]2CCCN2C(=O)[C@H]2CCCN12 | inactive | inactive | Non-Toxic | inactive |
| CC(C)C[C@@H]1NC(=O)[C@@H](Cc2ccc(OCc3ccccc3)cc2)NC1=O | inactive | inactive | Non-Toxic | inactive |
| CC(C)C[C@@H]1NC(=O)[C@H](C(C)C)NC1=O | inactive | inactive | Non-Toxic | inactive |
| CC(C)C[C@@H]1NC(=O)[C@@H](CC(C)C)NC1=O | inactive | inactive | Non-Toxic | inactive |
| CC(C)C[C@@H]1NC(=O)[C@H](C)NC1=O | inactive | inactive | Non-Toxic | inactive |
| N=C(N)N(CCC[C@@H]1NC(=O)[C@H](CCCCNC(=O)OCc2ccccc2)NC1=O)[N+](=O)[O-] | inactive | inactive | Non-Toxic | inactive |
| O=C1[C@@H]2CCCN2C(=O)[C@H]2CCCN12 | inactive | inactive | Non-Toxic | inactive |
| CC(C)C[C@@H]1NC(=O)[C@@H](C(C)C)NC1=O | inactive | inactive | Non-Toxic | inactive |
| CC(C)[C@@H]1NC(=O)[C@H](COCc2ccccc2)NC1=O | inactive | inactive | Non-Toxic | inactive |
| CCC(C)[C@@H]1NC(=O)[C@H](COCc2ccccc2)NC1=O (some centres not stated) | inactive | inactive | Non-Toxic | inactive |
| CC(C)[C@@H]1NC(=O)[C@@H](Cc2ccc(OCc3ccccc3)cc2)NC1=O | inactive | inactive | Non-Toxic | inactive |
| O=C1N[C@@H](COCc2ccccc2)C(=O)N[C@H]1COCc1ccccc1 | inactive | inactive | Non-Toxic | inactive |
| O=C1N[C@H](Cc2ccccc2)C(=O)N[C@H]1COCc1ccccc1 | inactive | inactive | Non-Toxic | inactive |
| CC(C)C[C@H]1NC(=O)[C@@H](C(C)C)NC1=O | inactive | inactive | Non-Toxic | inactive |
| CC(C)[C@@H]1NC(=O)[C@H](Cc2ccccc2)NC1=O | inactive | inactive | Non-Toxic | inactive |
| C[C@H]1NC(=O)[C@@H](Cc2ccccc2)NC1=O | inactive | inactive | Non-Toxic | inactive |
| C[C@@H]1NC(=O)[C@@H](C)NC1=O | inactive | inactive | Non-Toxic | inactive |
| CC(C)[C@@H]1NC(=O)[C@H](Cc2ccc(OCc3ccccc3)cc2)NC1=O | inactive | inactive | Non-Toxic | inactive |
| C[C@@H](OCc1ccccc1)[C@@H]1NC(=O)[C@H]([C@@H](C)OCc2ccccc2)NC1=O | inactive | inactive | Non-Toxic | inactive |
| CC(C)C[C@@H]1NC(=O)[C@H](COCc2ccccc2)NC1=O | inactive | inactive | Non-Toxic | inactive |
| O=C1CNC(=O)[C@H](CCC(=O)OCc2ccccc2)N1 | inactive | inactive | Non-Toxic | inactive |
| O=C(NCCCC[C@@H]1NC(=O)[C@H](CCCCNC(=O)OCc2ccccc2)NC1=O)OCc1ccccc1 | inactive | inactive | Non-Toxic | inactive |
| C[C@@H]1NC(=O)[C@H](Cc2ccccc2)NC1=O | inactive | inactive | Non-Toxic | inactive |
| CCC(C)[C@@H]1NC(=O)[C@H](Cc2ccccc2)NC1=O (some centres not stated) | inactive | inactive | Non-Toxic | inactive |

| Compound | inhibition (Fusobacterium nucleatum) | inhibition (Porphyromonas gingivalis) | growth inhibition (GI) (Streptococcus mutans [1]) | inhibition (Streptococcus mutans [2]) |
| --- | --- | --- | --- | --- |
| O=C(NCCCC[C@@H]1NC(=O)[C@H](Cc2ccccc2)NC1=O)OCc1ccccc1 | inactive | inactive | Non-Toxic | inactive |
| C[C@H]1NC(=O)[C@@H](C)NC1=O | inactive | inactive | Non-Toxic | inactive |
| CC(C)C[C@H]1NC(=O)[C@H](C(C)C)NC1=O | inactive | inactive | Non-Toxic | inactive |
| O=C1N[C@@H](Cc2ccc(OCc3ccccc3)cc2)C(=O)N2CCC[C@@H]12 | inactive | inactive | Non-Toxic | inactive |
| CCC(C)[C@@H]1NC(=O)[C@H](C(C)CC)NC1=O (some centres not stated) | inactive | inactive | Non-Toxic | inactive |
| O=C1N[C@H](COCc2ccccc2)C(=O)N[C@H]1COCc1ccccc1 | inactive | inactive | Non-Toxic | inactive |
| CC(C)C[C@@H]1NC(=O)[C@H](Cc2ccc([N+](=O)[O-])cc2)NC1=O | inactive | inactive | Non-Toxic | inactive |
| CC(C)C[C@@H]1NC(=O)[C@H](Cc2ccc(OCc3ccccc3)cc2)NC1=O | inactive | inactive | Non-Toxic | inactive |
| CC(C)[C@@H]1NC(=O)[C@H](C)NC1=O | inactive | inactive | Non-Toxic | inactive |
| O=C1N[C@@H](Cc2ccc([N+](=O)[O-])cc2)C(=O)N[C@H]1Cc1ccc([N+](=O)[O-])cc1 | inactive | inactive | Non-Toxic | inactive |
| O=C1[C@@H]2CSCN2C(=O)[C@@H]2CSCN12 | inactive | inactive | Non-Toxic | inactive |
| O=C1[C@@H]2CCCN2C(=O)[C@@H]2CCCN12 | inactive | inactive | Non-Toxic | inactive |
| O=C1N[C@H](COCc2ccccc2)C(=O)N[C@@H]1COCc1ccccc1 | inactive | inactive | Non-Toxic | inactive |
| C[C@@H]1NC(=O)[C@H](Cc2ccc(OCc3ccccc3)cc2)NC1=O | inactive | inactive | Non-Toxic | inactive |
| CC(C)C[C@H]1NC(=O)[C@@H](CC(C)C)NC1=O | inactive | inactive | Non-Toxic | inactive |
| NCCCC[C@@H]1NC(=O)[C@H](Cc2ccccc2)NC1=O | inactive | inactive | Non-Toxic | inactive |
| CC(C)C[C@@H]1NC(=O)[C@H](CCCN(C(=N)N)[N+](=O)[O-])NC1=O | inactive | inactive | Non-Toxic | inactive |
| CC(C)C[C@@H]1NC(=O)CNC1=O | inactive | inactive | Non-Toxic | inactive |
| CC(C)[C@@H]1NC(=O)[C@H](C(C)C)NC1=O | inactive | inactive | Non-Toxic | inactive |
| CC(C)C[C@@H]1NC(=O)[C@H](Cc2ccccc2)NC1=O | inactive | inactive | Non-Toxic | inactive |
| CC(C)C[C@@H]1NC(=O)[C@H](CC(C)C)NC1=O | inactive | inactive | Non-Toxic | inactive |
| O=C1N[C@@H](Cc2ccccc2)C(=O)N[C@H]1COCc1ccccc1 | inactive | inactive | Non-Toxic | inactive |
| CC(C)C[C@H]1NC(=O)[C@@H](Cc2ccc(OCc3ccccc3)cc2)NC1=O | inactive | inactive | Non-Toxic | inactive |
| O=C1CNC(=O)[C@H](Cc2ccccc2)N1 | inactive | inactive | Non-Toxic | inactive |
